Among the data in patent US20260102501A1, “ANTI-CANCER NUCLEAR HORMONE RECEPTOR-TARGETING COMPOUNDS” (Nuvation Bio Inc., priority 2022, published 2026) are IC50 values, retold here.

In test [1] the target is T1, GR (cytosol from IM-9 cells) (Homo sapiens, UniProt P04150).
T1 sequence (P04150 1-777): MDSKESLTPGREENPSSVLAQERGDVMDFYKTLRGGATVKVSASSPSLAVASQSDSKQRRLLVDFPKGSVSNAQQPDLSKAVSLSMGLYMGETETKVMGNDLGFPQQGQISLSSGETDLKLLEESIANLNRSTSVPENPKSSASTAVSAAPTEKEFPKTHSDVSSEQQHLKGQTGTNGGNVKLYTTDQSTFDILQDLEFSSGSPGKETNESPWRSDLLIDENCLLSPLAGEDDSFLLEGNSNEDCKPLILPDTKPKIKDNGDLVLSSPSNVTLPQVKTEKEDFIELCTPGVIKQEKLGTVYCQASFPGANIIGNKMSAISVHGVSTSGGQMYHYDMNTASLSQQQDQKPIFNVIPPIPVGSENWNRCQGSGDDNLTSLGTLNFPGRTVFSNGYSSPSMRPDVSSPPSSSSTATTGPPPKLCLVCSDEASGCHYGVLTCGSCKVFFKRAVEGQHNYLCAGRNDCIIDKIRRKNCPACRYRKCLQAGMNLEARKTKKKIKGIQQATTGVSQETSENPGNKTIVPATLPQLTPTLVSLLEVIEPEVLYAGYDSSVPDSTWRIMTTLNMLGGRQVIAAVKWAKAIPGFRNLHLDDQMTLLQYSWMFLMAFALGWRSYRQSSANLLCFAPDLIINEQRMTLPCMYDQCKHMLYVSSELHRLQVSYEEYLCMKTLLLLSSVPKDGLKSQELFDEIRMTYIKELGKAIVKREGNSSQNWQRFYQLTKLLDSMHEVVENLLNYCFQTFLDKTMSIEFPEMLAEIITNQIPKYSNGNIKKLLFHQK
Put plainly: GR binding assay (3H-Dexamethasone displacement).

Another test has as its system LNCap cells. Briefly: Cell viability assay (CellTiterGlo). The test is classed as cell-based. The note with it: Homo sapiens, 144 h.
For another test, the system named is 22Rv1 cells. Briefly: Cell viability assay (CellTiterGlo). The note with it: Homo sapiens, 22Rv1, 144 h, read-out: 22RV1 (IC50, nM). Background: ATP-based viability assays read luminescence as a measure of living cells.
The test system of the next test is IEC6 cells. Put plainly: Cell viability assay (CellTiterGlo). Particulars: Rattus norvegicus, IEC-6, 144 h, read-out: IEC-6 (IC50, nM).
Test [2] has as its target T2, full-length androgen receptor (HEK293 cells stably expressing) (Homo sapiens, UniProt P10275).
T2 sequence (P10275 1-920): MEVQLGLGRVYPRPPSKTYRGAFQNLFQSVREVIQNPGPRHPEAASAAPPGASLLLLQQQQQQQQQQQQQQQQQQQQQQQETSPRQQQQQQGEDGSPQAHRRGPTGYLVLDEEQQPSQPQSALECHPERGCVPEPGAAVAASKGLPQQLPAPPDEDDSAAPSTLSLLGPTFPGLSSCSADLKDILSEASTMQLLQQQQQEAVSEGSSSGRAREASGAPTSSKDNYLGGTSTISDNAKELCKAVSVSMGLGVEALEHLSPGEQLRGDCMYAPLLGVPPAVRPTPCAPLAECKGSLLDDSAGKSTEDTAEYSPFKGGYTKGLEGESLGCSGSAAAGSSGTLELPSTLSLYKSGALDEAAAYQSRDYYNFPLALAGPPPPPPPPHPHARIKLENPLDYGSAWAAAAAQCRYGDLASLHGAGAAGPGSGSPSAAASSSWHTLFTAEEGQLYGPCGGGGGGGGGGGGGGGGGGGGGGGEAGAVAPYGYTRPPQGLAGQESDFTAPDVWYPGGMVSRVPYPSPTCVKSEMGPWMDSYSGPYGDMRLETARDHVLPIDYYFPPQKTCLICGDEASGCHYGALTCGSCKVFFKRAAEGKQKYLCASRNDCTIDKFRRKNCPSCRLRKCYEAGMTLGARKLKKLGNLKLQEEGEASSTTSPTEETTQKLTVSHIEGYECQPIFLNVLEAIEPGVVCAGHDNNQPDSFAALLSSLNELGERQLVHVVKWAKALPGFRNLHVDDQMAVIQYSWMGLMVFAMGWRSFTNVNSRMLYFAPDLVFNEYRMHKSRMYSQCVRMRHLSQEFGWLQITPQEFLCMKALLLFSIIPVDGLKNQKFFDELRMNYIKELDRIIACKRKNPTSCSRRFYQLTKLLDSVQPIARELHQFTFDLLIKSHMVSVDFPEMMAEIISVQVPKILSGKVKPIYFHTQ
Briefly: AR antagonism assay (luciferase reporter).
Procedure: AR antagonism assay: To evaluate AR antagonist activity, test compound was added to the assay plate (top dose 10 μM, 3 fold serial dilution, 10 point dose response). HEK293 cells stably expressing the full-length androgen receptor were seeded at a density of 20000 cells/well in the assay plate. The assay plate was then incubated at room temperature for 10 minutes and at 37° C. 5% CO2 for 20 minutes. Testosterone was added to the assay plate at 1 nM final concentration and the assay plate incubated at 37° C., 5% CO2 for 20 h. […] Steady-glo was added to the assay plate and mixed at room temperature for 20 minutes on an orbital shaker, before reading out on the En Vision plate reader.

Test [3] addresses T3, AR (cytosol from LnCaP cells) (Homo sapiens, UniProt P10275, T878A).
T3 sequence (P10275 1-920 T878A): T2 sequence (P10275 1-920) with T878A
Put plainly: AR binding assay (3H-R1881 displacement).
Procedure: The plate was then centrifuged at 3000 rpm for 30 minutes at 4° C.

Test [4] addresses T4, ligand binding domain of the glucocorticoid receptor (HEK293 cells stably expressing) (Homo sapiens, UniProt P04150).
T4 sequence (P04150 524-758 limits assumed): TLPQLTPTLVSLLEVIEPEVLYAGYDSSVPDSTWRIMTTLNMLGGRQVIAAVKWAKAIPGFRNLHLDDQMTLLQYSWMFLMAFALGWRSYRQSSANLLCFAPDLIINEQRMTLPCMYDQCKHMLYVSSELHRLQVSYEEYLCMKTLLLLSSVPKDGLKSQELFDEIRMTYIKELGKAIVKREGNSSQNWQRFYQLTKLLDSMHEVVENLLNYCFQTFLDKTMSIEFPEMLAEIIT
Put plainly: GR antagonism assay (luciferase reporter). A general note: A reporter such as luciferase makes a cellular process visible.

Where [5] appears, read: 6 days incubation, CellTiterGlo, read-out: LNCap (IC50).

Positions count from the first letter of the chain named. Where a name gives a salt, the structure may show the parent alone. Read-outs that look alike come from different tables or passages of the source.

As a reminder, the IC50 is the concentration at which inhibition is half-maximal. `CC[C@@]1(O)C(=O)OCc2c1cc1n(c2=O)Cc2cc3c(CN(C)C)c(OC(=O)N4CCN(CC5CCN(c6ccc(C(=O)N[C@H]7CC[C@H](N(C)c8ccc(C#N)c(Cl)c8)CC7)nn6)CC5)CC4)ccc3nc2-1` [Compound No. 18, (S)-10-((Dimethylamino)methyl)-4-ethyl-4-hydroxy-3,14-dioxo-3,4,12,14-tetrahydro-1H-pyrano[3′,4′:6,7]indolizino[1,2-b]quinolin-9-yl 4-((1-(6-(((1r,4r)-4-((3-chloro-4-cyanophenyl)(methyl)-amino)cyclohexyl)carbamoyl)pyridazin-3-yl)piperidin-4-yl)methyl)piperazine-1-carboxylate]: the IC50 is 0.101 to 1 µM in test [1]; 10 to 100 nM with LNCap cells (read-out: LNCap (IC50, nM)); 10 to 100 nM in the test on 22Rv1 cells; 101 to 1000 nM in the test on IEC6 cells; 0.101 to 1 µM in test [2]; 0.01 to 0.1 µM in test [3]. This molecule also gave an IC50 in test [4] of 0.101 to 1 µM.
Consider `CC[C@@]1(O)C(=O)OCc2c1cc1n(c2=O)Cc2cc3c(CN4CCN(C(=O)C5CCN(c6ccc(C(=O)N[C@H]7CC[C@H](Oc8ccc(C#N)c(Cl)c8C)CC7)nn6)CC5)CC4)c(O)ccc3nc2-1` [Compound 25, N-((1r,4r)-4-(3-Chloro-4-cyano-2-methylphenoxy)cyclohexyl)-6-(4-(4-(((S)-4-ethyl-4,9-dihydroxy-3,14-dioxo-3,4,12,14-tetrahydro-1H-pyrano[3′,4′:6,7]indolizino[1,2-b]quinolin-10-yl)methyl)piperazine-1-carbonyl)piperidin-1-yl)pyridazine-3-carboxamide], for which the IC50 was greater than 1 µM in test [1]; less than 10 nM in the test on LNCap cells (setting [5]); 10 to 100 nM in the test on 22Rv1 cells; greater than 1 µM in test [2]; less than 0.01 µM in test [3]; greater than 1 µM in test [4].
Take `CC[C@@]1(OC(=O)N2CCN(CC3CCN(c4ccc(C(=O)N[C@H]5CC[C@H](Oc6ccc(C#N)c(Cl)c6C)CC5)nn4)CC3)CC2)C(=O)OCc2c1cc1n(c2=O)Cc2cc3cc(OC)ccc3nc2-1` [Compound 23, (S)-4-Ethyl-9-methoxy-3,14-dioxo-3,4,12,14-tetrahydro-1H-pyrano[3′,4′:6,7]indolizino[1,2-b]quinolin-4-yl 4-((1-(6-(((1r,4r)-4-(3-chloro-4-cyano-2-methylphenoxy)cyclohexyl)carbamoyl)pyridazin-3-yl)piperidin-4-yl)methyl)piperazine-1-carboxylate]: the IC50 in test [1] was greater than 1 µM; with LNCap cells (setting [5]), 10 to 100 nM; with 22Rv1 cells, 101 to 1000 nM; in test [2], greater than 1 µM; in test [3], 0.01 to 0.1 µM; in test [4] it was greater than 1 µM.
For the molecule `CC[C@@]1(O)C(=O)OCc2c1cc1n(c2=O)Cc2cc3c(CN4CCN(CC5CCN(c6ccc(C(=O)N[C@H]7CC[C@H](Oc8ccc(C#N)c(Cl)c8C)CC7)nn6)CC5)CC4)c(O)ccc3nc2-1` [Compound 26, N-((1r,4r)-4-(3-Chloro-4-cyano-2-methylphenoxy)cyclohexyl)-6-(4-((4-(((S)-4-ethyl-4,9-dihydroxy-3,14-dioxo-3,4,12,14-tetrahydro-1H-pyrano[3′,4′:6,7]indolizino[1,2-b]quinolin-10-yl)methyl)piperazin-1-yl)methyl)piperidin-1-yl)pyridazine-3-carboxamide Formate], the IC50 in test [1] is greater than 1 µM; in the test with LNCap cells (setting [5]) it was less than 10 nM; in the test with 22Rv1 cells it was 10 to 100 nM; in test [2], greater than 1 µM; in test [3], less than 0.01 µM; in test [4] it was greater than 1 µM.
On to `CC[C@@]1(O)C(=O)OCc2c1cc1n(c2=O)Cc2cc3c(CN4CCN(C(=O)C5CCN(c6ccc(C(=O)N[C@H]7CC[C@H](Oc8ccc(C#N)c(Cl)c8C)CC7)nn6)CC5)CC4)c(OC(=O)N4CCN(C)CC4)ccc3nc2-1` [Compound 27, (S)-10-((4-(1-(6-(((1r,4r)-4-(3-Chloro-4-cyano-2-methylphenoxy)cyclohexyl)carbamoyl)-pyridazin-3-yl)piperidine-4-carbonyl)piperazin-1-yl)methyl)-4-ethyl-4-hydroxy-3,14-dioxo-3,4,12,14-tetrahydro-1H-pyrano[3′,4′:6,7]indolizino[1,2-b]quinolin-9-yl 4-methylpiperazine-1-carboxylate Formate], for which the IC50 is 0.01 to 0.1 µM in test [1]; 10 to 100 nM with LNCap cells (read-out: LNCap (IC50, nM)); 101 to 1000 nM in the test with 22Rv1 cells; 0.101 to 1 µM in test [2]; less than 0.01 µM in test [3]; greater than 1 µM in test [4].
